Laboratory results: patent US6153624A, “Pyrrolidine and piperidine derivatives and treatment of neurodegenerative disorders” (Hoffman-LaRoche Inc., priority 1998, dated 2000)

Tests used:
[1] = biological target: T1, N-methyl-D-aspartate (NMDA) receptor containing the NR2B subunit (Rattus norvegicus, UniProt P35439+Q00960); experiment: 3H-Ro 25-6981 binding (displacement) to rat brain membranes; set-up: species or system rat (male Fullinsdorf albino); conditions: 3H-Ro 25-6981 5 nM, 2 hours at 4° C., pH 7.4, rat whole brain minus cerebellum and medulla oblongata
T1 construct: Membranes were prepared by homogenization of the whole brain minus cerebellum and medulla oblongata; from tissue; host or cells: rat whole brain minus cerebellum and medulla oblongata, membranes
Source text: In the following test RO 25-6981 ([R-(R*,S*)]-a-(4-Hydroxy-phenyl)-b-methyl-4-(phenyl-methyl)-1-piperidine propanol)has been used as a high and selective blocker of N-methyl-D-aspartate (NMDA) receptor containing the NR2B subjunit. The interaction of RO 25-6981 with NMDA receptors is characterized by the described test in vitro.
3H-Ro 25-6981 binding (Ro 25-6981 is [R-(R*,S*)]-a-(4-Hydroxy-phenyl)-b-methyl-4-(phenyl-methyl)-1-piperidine propanol)
Male Fullinsdorf albino rats weighing between 150-200 g were used. Membranes were prepared by homogenization of the whole brain minus cerebellum and medulla oblongata with a Polytron (10.000 rpm, 30 seconds), in 25 volumes of a cold Tris-HCl 50 mM, EDTA 10 mM, pH 7.1 buffer. The homogenate was centrifuged at 48.000 g for 10 minutes at 4° C. The pellet was resuspended using the Polytron in the same volume of buffer and the homogenate was incubated at 37° C. for 10 minutes. After centrifugation the pellet was homogenized in the same buffer and frozen at -80° C. for at least 16 hours but not more than 10 days. For the binding assay the homogenate was thawed at 37° C., centrifuged and the pellet was washed three times as above in a Tris-HCl 5 mM, pH 7.4 cold buffer. The final pellet was resuspended in the same buffer and used at a final concentration of 200 μg of protein/ml.
3H-Ro 25-6981 binding experiments were performed using a Tris-HCl 50 mM, pH 7.4 buffer. For displacement experiments 5 nM of 3H-Ro 25-6981 were used and non specific binding was measured using 10 μm of tetrahydroisoquinoline and usually it accounts for 10% of the total. The incubation time was 2 hours at 4° C. and the assay was stopped by filtration on Whatmann GF/B glass fiber filters (Unifilter-96, Packard, Zurich, Switzerland). The filters were washed 5 times with cold buffer. The radioactivity on the filter was counted on a Packard Top-count microplate scintillation counter after addition of […] of microscint 40 (Canberra Packard S. A., Zurich, Switzerland).
The effects of compounds were measured using a minimum of 8 concentrations and repeated at least once. The pooled normalized values were analyzed using a non-linear regression calculation program which provide IC50 with their relative upper and lower 95% confidence limits (RS1, BBN, USA).

[2] = tested on: NMDA receptors; conditions: Journ. of Pharmacology, Vol. 283, No.8, 1285-1297; cited from earlier work

T1 sequence (Q00960 27-1482, other chains not shown): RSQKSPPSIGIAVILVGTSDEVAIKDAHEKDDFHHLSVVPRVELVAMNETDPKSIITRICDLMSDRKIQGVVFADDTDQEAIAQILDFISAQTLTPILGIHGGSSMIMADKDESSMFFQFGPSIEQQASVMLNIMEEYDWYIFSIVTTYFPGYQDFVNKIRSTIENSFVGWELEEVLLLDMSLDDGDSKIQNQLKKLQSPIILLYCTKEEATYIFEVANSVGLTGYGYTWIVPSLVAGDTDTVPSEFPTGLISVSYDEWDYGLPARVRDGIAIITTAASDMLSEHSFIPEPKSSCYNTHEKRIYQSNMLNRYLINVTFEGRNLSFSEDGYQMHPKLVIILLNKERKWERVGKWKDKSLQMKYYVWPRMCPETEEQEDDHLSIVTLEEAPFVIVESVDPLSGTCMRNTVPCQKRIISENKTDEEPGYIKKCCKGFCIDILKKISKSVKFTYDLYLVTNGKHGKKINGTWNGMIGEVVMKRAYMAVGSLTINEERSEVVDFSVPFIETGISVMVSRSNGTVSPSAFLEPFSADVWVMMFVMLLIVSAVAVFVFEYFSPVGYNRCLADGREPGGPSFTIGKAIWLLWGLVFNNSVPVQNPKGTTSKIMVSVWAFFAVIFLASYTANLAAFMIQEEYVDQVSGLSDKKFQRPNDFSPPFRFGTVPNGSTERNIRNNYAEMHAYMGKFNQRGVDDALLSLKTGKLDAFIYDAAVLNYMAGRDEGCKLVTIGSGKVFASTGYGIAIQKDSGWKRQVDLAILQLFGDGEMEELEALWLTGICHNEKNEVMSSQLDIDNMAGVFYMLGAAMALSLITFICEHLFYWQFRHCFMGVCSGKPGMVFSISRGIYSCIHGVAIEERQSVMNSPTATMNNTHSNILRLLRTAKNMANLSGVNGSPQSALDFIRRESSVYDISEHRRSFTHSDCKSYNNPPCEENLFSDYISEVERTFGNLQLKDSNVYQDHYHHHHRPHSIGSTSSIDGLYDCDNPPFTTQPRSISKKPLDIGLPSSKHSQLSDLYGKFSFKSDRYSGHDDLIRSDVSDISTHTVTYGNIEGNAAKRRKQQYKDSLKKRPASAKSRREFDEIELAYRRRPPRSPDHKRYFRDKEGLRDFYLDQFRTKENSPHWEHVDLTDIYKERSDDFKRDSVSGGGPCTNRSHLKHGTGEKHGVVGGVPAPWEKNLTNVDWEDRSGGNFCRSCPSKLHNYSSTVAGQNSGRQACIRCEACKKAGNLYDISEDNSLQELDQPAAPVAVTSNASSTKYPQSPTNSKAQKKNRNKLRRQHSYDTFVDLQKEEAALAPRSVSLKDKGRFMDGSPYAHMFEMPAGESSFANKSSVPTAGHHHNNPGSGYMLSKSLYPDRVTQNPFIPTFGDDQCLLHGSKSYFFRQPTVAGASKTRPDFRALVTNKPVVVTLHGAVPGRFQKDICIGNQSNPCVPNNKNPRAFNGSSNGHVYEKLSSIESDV

| IC50 [1] [nM] | SMILES | demonstration of NMDA receptor block (in words) [2] |
| --- | --- | --- |
| 40 | Oc1ccc([C@@H](O)[C@@H]2CC[C@@H](CCc3ccccc3)N2)cc1O (racemic) [Example 5, 4-[(RS)-hydroxy-[(2SR,5RS)-5-phenethyl-pyrrolidin-2-yl]-methyl]-benzene-1,2-diol] | – |
| 45 | COc1ccc(CC[C@@H]2CCC[C@H](Cc3ccc(O)cc3)N2)cc1 (racemic) [Example 6, (2RS,6SR)-4-[6-[2-(4-methoxy-phenyl)-ethyl]-piperidin-2-ylmethyl]-phenol] | – |
| 90 | Oc1ccc([C@H]2OCCN3[C@@H](CCc4ccccc4)CC[C@H]23)cc1 (racemic) [Example 35, (1RS,6SR,8aRS)-4-(6-phenethyl-hexahydro-pyrrolo[2,1-c][1,4]oxazin-1-yl)-phenol] | – |
| 50 | Oc1ccc([C@H]2OCN3[C@H](CCc4ccccc4)CC[C@@H]23)cc1 (racemic) [Example 37, (1RS ,5RS,7aSR)-4-(5-phenethyl-tetrahydro-pyrrolo[1,2-c]oxazol-1-yl)-phenol] | – |

Second part, the compound before the results:

| SMILES | IC50 [1] [nM] | demonstration of NMDA receptor block (in words) [2] |
| --- | --- | --- |
| Oc1ccc([C@@H](O)[C@@H]2CC[C@@H](CCc3ccccc3)N2)cc1 (racemic) [Example 1, 4-[(RS)-hydroxy-[(2SR,5RS)-5-phenethyl-pyrrolidin-2-yl]-methyl]-phenol] | 20 | – |
| COc1ccc(CC[C@H]2CC[C@@H]([C@H](O)c3ccc(O)c(F)c3)N2)cc1 (racemic) [Example 2, 2-fluoro-4-[(RS)-hydroxy-[(2SR,5SR)-5-[2-(4-methoxy-phenyl)-ethyl]-pyrrolidin-2-yl]-methyl]-phenol] | 30 | – |
| COc1ccc(CC[C@@H]2CC[C@H](Cc3ccc(O)cc3)N2)cc1 (racemic) [Example 4, (2RS,5RS)-4-[5-[2-(4-methoxy-phenyl)-ethyl]-pyrrolidin-2-ylmethyl]-phenol] | 40 | – |
| COc1ccc(CCC2CCC(C(=O)c3ccc(O)cc3)N2)cc1 (racemic) [Example 7, Mixture of (2RS,5RS)-- and (2RS,5SR)-(4-hydroxy-phenyl)-[5-[2-(4-methoxy-phenyl)-ethyl]-pyrrolidin-2-yl]-methanone] | 70 | – |
| COc1ccc(CC[C@@H]2CCC[C@H](C(O)c3ccc(O)cc3)N2)cc1 (stereo partly shown) [Example 3] | 30 | – |
| C[C@@H](CN1CCC(Cc2ccccc2)CC1)[C@@H](O)c1ccc(O)cc1 [RO 25-6981, [R-(R*,S*)]-a-(4-Hydroxy-phenyl)-b-methyl-4-(phenyl-methyl)-1-piperidine propanol] | – | highly selective, activity-dependent blocker of NMDA receptors |
